{
  "source": "paper PMC4387854",
  "about": "(Bioorganic & medicinal chemistry, 2013)",
  "origin": "cited, not measured here",
  "key": {"[1]": {"conditions": "preclinical evaluation in rats and dogs or in human trials"}, "[2]": {"conditions": "female rats with MNU-initiated mammary tumors; ref Grubbs et al. 8"}},
  "note": "Marks after values point to notes of the source that are not given here.",
  "data": [
    {"smiles": "CC(=C/C=C/C(C)=C/C(=O)O)/C=C1\\CCCc2ccccc21", "note": "[9cUAB30, (2E,4E,6Z,8Z)-8-(3’,4’-Dihydro-1’(2H)-naphthalen-1’-ylidene)-3,7-dimethyl-2,3,6-octatrienoinic acid]", "values": [
      {"measurement": "Increase in serum TG", "setting": "[1]", "result": "no increase"},
      {"measurement": "Serum Triglyceride Increase (%)", "setting": "[2]", "result": 65, "unit": "% ^d"}
    ]}
  ]
}
